ChEMBL document CHEMBL4507290 (2021)

Tests used:
[1] = target: LIM domain kinase 2 (Homo sapiens) (UniProt P53671); settings: Compound concentration 1000.0 nM
[2] = target: Mitogen-activated protein kinase 15 (Homo sapiens) (UniProt Q8TD08); settings: Compound concentration 1000.0 nM
[3] = target: Serine/threonine-protein kinase 38 (Homo sapiens) (UniProt Q15208); settings: Compound concentration 1000.0 nM
[4] = target: SRSF protein kinase 2 (Homo sapiens) (UniProt P78362); settings: Compound concentration 1000.0 nM
[5] = target: Ephrin type-B receptor 6 (Homo sapiens) (UniProt O15197); settings: Compound concentration 1000.0 nM
[6] = target: Calcium/calmodulin-dependent protein kinase type II subunit gamma (Homo sapiens) (UniProt Q13555); settings: Compound concentration 1000.0 nM
[7] = target: Calcium/calmodulin-dependent protein kinase type 1G (Homo sapiens) (UniProt Q96NX5); settings: Compound concentration 1000.0 nM
[8] = target: 5'-AMP-activated protein kinase catalytic subunit alpha-1 (Homo sapiens) (UniProt Q13131); settings: Compound concentration 1000.0 nM
[9] = test system: Receptor-type tyrosine-protein kinase FLT3 (Homo sapiens), P36888 [N841I]; settings: Compound concentration 1000.0 nM
[10] = target: Cyclin-dependent kinase 5 (Homo sapiens) (UniProt Q00535); settings: Compound concentration 1000.0 nM
[11] = target: SRSF protein kinase 3 (Homo sapiens) (UniProt Q9UPE1); settings: Compound concentration 1000.0 nM
[12] = target: Ephrin type-A receptor 7 (Homo sapiens) (UniProt Q15375); settings: Compound concentration 1000.0 nM
[13] = target: Dual specificity mitogen-activated protein kinase kinase 5 (Homo sapiens) (UniProt Q13163); settings: Compound concentration 1000.0 nM
[14] = target: Mitogen-activated protein kinase 6 (Homo sapiens) (UniProt Q16659); settings: Compound concentration 1000.0 nM
[15] = target: Ankyrin repeat and protein kinase domain-containing protein 1 (Homo sapiens) (UniProt Q8NFD2); settings: Compound concentration 1000.0 nM
[16] = target: Fibroblast growth factor receptor 2 (Homo sapiens) (UniProt P21802); settings: Compound concentration 1000.0 nM
[17] = target: Cyclin-dependent kinase 4 (Homo sapiens) (UniProt P11802); settings: Compound concentration 1000.0 nM
[18] = target: Myosin light chain kinase 2, skeletal/cardiac muscle (Homo sapiens) (UniProt Q9H1R3); settings: Compound concentration 1000.0 nM
[19] = target: Serine/threonine-protein kinase VRK2 (Homo sapiens) (UniProt Q86Y07); settings: Compound concentration 1000.0 nM
[20] = target: Serine/threonine-protein kinase 25 (Homo sapiens) (UniProt O00506); settings: Compound concentration 1000.0 nM
[21] = target: Tyrosine-protein kinase Tec (Homo sapiens) (UniProt P42680); settings: Compound concentration 1000.0 nM
[22] = test system: Mast/stem cell growth factor receptor Kit (Homo sapiens), P10721 [D816V]; settings: Compound concentration 1000.0 nM
[23] = target: Homeodomain-interacting protein kinase 4 (Homo sapiens) (UniProt Q8NE63); settings: Compound concentration 1000.0 nM
[24] = target: Serine/threonine-protein kinase 17A (Homo sapiens) (UniProt Q9UEE5); settings: Compound concentration 1000.0 nM
[25] = target: Serine/threonine-protein kinase BRSK2 (Homo sapiens) (UniProt Q8IWQ3); settings: Compound concentration 1000.0 nM
[26] = target: 1-phosphatidylinositol 3-phosphate 5-kinase (Homo sapiens) (UniProt Q9Y2I7); settings: Compound concentration 1000.0 nM
[27] = target: Ribosomal protein S6 kinase alpha-6 (Homo sapiens) (UniProt Q9UK32); settings: Compound concentration 1000.0 nM
[28] = target: Casein kinase II subunit alpha' (Homo sapiens) (UniProt P19784); settings: Compound concentration 1000.0 nM
[29] = target: Leukocyte tyrosine kinase receptor (Homo sapiens) (UniProt P29376); settings: Compound concentration 1000.0 nM
[30] = target: RAF proto-oncogene serine/threonine-protein kinase (Homo sapiens) (UniProt P04049); settings: Compound concentration 1000.0 nM
[31] = target: Serine/threonine-protein kinase OSR1 (Homo sapiens) (UniProt O95747); settings: Compound concentration 1000.0 nM
[32] = target: Ribosomal protein S6 kinase alpha-2 (Homo sapiens) (UniProt Q15349); settings: Compound concentration 1000.0 nM
[33] = target: Serine/threonine-protein kinase MARK1 (Homo sapiens) (UniProt Q9P0L2); settings: Compound concentration 1000.0 nM
[34] = target: Mitogen-activated protein kinase 10 (Homo sapiens) (UniProt P53779); settings: Compound concentration 1000.0 nM
[35] = target: D(1B) dopamine receptor (Homo sapiens) (UniProt P21918); settings: Compound concentration 10.0 uM
[36] = target: Sigma intracellular receptor 2 (Homo sapiens) (UniProt Q5BJF2); settings: Compound concentration 10.0 uM
[37] = target: Serine/threonine-protein kinase NLK (Homo sapiens) (UniProt Q9UBE8); settings: Compound concentration 1000.0 nM
[38] = target: SRSF protein kinase 1 (Homo sapiens) (UniProt Q96SB4); settings: Compound concentration 1000.0 nM
[39] = target: Receptor-type tyrosine-protein kinase FLT3 (Homo sapiens) (UniProt P36888); settings: Compound concentration 1000.0 nM
[40] = target: Protein kinase C eta type (Homo sapiens) (UniProt P24723); settings: Compound concentration 1000.0 nM
[41] = test system: Tyrosine-protein kinase ABL1 (Homo sapiens), P00519 [M351T]; settings: Compound concentration 1000.0 nM
[42] = target: 5-hydroxytryptamine receptor 3A (Homo sapiens) (UniProt P46098); settings: Compound concentration 10.0 uM
[43] = target: Mast/stem cell growth factor receptor Kit (Homo sapiens) (UniProt P10721); settings: Compound concentration 1000.0 nM
[44] = target: Calcium/calmodulin-dependent protein kinase kinase 1 (Homo sapiens) (UniProt Q8N5S9); settings: Compound concentration 1000.0 nM
[45] = target: Megakaryocyte-associated tyrosine-protein kinase (Homo sapiens) (UniProt P42679); settings: Compound concentration 1000.0 nM

Ephrin type-B receptor 6 (Homo sapiens), sequence (O15197 whole entry): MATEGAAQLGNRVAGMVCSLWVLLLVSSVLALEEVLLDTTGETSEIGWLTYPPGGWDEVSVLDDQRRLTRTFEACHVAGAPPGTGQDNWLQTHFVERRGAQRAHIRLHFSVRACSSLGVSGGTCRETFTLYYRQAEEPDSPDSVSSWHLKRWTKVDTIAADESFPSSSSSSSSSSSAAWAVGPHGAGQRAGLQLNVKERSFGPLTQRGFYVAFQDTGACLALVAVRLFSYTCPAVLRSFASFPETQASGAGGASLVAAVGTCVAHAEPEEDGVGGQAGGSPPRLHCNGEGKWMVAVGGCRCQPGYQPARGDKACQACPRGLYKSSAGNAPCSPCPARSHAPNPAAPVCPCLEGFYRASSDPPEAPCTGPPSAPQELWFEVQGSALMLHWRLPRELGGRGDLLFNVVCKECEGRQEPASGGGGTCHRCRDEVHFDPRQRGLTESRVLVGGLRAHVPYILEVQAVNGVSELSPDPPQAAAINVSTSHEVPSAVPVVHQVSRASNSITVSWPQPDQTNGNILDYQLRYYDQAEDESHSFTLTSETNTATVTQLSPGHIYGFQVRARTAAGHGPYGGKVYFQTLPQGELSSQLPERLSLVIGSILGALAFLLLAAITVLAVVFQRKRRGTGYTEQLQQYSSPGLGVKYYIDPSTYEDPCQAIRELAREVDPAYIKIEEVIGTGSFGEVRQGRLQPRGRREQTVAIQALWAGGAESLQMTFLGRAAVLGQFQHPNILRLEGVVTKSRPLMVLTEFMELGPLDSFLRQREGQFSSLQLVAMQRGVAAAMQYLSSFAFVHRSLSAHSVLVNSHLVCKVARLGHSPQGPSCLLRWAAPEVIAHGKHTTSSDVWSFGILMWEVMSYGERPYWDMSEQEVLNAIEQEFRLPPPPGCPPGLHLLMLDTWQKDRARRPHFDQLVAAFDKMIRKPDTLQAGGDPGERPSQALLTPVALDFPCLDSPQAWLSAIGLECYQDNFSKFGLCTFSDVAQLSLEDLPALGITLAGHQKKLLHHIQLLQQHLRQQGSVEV
Mitogen-activated protein kinase 15 (Homo sapiens), sequence (Q8TD08 whole entry): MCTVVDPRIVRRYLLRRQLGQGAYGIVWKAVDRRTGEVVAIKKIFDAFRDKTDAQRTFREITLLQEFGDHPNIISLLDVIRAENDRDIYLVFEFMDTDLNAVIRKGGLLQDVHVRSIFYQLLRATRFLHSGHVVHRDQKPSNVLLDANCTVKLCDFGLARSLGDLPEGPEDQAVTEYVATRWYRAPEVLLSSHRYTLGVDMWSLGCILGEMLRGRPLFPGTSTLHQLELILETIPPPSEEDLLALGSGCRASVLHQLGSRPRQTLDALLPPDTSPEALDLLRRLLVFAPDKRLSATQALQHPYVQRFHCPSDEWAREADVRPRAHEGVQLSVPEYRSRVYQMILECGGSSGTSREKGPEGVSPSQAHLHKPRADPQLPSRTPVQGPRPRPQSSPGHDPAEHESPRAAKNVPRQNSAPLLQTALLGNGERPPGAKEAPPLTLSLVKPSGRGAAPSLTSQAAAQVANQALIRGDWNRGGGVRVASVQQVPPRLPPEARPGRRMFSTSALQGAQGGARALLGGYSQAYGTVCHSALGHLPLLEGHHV
Serine/threonine-protein kinase BRSK2 (Homo sapiens), sequence (Q8IWQ3 whole entry): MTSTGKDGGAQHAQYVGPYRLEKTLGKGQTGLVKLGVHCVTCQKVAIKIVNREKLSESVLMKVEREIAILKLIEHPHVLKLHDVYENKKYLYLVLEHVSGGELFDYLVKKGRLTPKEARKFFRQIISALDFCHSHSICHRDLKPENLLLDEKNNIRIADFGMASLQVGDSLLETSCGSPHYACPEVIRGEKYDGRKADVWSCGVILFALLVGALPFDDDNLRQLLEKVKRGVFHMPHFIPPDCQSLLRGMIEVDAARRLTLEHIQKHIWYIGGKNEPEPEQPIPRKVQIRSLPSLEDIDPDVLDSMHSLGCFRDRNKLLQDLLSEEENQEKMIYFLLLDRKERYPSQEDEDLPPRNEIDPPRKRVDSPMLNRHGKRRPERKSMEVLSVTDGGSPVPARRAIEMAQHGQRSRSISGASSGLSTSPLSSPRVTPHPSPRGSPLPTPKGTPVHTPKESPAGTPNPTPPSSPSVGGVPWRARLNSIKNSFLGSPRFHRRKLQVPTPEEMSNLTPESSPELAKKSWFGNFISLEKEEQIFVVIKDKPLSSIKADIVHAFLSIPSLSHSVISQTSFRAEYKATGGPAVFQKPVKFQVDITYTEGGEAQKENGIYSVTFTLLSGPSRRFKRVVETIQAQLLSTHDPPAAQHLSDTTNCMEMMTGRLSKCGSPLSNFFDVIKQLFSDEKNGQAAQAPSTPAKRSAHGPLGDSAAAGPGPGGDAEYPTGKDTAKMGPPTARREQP
Ankyrin repeat and protein kinase domain-containing protein 1 (Homo sapiens), sequence (Q8NFD2 whole entry, the tested form may be a part): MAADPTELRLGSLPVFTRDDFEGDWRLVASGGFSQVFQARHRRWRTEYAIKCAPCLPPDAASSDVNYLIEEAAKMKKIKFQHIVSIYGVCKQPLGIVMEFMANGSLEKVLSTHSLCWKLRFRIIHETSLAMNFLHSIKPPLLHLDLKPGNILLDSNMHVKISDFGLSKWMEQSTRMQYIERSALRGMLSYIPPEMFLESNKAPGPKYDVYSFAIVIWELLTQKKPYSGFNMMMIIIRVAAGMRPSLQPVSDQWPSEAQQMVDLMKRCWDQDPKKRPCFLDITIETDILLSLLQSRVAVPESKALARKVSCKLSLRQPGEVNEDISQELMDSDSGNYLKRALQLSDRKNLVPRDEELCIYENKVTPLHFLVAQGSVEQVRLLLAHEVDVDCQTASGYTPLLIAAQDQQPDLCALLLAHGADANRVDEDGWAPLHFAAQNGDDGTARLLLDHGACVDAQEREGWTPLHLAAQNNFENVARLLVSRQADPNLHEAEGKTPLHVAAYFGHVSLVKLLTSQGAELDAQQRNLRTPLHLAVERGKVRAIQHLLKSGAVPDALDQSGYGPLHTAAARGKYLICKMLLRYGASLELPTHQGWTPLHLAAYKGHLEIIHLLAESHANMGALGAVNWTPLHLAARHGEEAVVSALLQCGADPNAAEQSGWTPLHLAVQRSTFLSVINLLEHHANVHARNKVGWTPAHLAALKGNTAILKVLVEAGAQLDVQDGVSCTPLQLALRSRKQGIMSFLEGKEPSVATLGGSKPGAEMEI
Calcium/calmodulin-dependent protein kinase type II subunit gamma (Homo sapiens), sequence (Q13555 whole entry): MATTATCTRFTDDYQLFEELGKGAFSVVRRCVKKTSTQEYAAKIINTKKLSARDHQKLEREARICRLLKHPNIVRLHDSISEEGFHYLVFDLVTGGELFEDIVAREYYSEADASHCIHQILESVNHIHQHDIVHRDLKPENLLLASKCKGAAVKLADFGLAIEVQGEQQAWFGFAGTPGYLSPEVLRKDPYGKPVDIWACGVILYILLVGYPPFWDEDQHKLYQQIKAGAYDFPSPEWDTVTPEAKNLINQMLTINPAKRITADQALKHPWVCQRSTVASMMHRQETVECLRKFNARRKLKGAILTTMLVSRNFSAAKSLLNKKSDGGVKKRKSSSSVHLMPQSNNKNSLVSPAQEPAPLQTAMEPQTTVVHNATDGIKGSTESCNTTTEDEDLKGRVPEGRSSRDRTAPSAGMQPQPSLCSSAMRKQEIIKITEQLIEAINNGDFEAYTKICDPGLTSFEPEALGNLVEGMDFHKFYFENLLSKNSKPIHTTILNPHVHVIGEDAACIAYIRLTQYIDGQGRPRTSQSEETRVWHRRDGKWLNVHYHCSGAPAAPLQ
Mast/stem cell growth factor receptor Kit (Homo sapiens), sequence (P10721 whole entry): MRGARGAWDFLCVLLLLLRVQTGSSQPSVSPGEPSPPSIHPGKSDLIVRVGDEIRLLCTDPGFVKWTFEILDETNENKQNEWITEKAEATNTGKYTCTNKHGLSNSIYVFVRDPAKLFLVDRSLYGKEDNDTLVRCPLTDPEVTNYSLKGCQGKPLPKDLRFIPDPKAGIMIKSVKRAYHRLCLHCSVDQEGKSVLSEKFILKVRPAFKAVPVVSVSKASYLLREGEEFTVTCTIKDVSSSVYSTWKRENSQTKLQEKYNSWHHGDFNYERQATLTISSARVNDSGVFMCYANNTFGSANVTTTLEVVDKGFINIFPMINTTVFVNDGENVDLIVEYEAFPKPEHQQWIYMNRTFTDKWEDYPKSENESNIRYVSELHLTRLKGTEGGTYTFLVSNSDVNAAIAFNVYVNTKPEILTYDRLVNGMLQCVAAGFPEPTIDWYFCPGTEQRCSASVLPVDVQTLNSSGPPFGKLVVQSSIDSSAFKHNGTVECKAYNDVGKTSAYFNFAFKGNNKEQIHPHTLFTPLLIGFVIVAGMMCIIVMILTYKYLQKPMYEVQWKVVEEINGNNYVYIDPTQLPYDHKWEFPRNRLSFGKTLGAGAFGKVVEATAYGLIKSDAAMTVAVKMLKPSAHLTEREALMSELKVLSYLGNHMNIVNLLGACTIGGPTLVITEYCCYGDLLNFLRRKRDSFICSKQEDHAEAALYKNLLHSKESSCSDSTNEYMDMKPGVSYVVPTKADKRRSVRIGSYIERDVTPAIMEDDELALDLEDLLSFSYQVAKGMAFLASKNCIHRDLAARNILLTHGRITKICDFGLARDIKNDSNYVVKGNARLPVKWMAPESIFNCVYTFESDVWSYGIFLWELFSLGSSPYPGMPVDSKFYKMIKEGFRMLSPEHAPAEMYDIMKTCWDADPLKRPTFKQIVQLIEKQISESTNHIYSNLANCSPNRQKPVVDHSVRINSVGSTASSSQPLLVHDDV
Mast/stem cell growth factor receptor Kit (Homo sapiens), P10721 [D816V], sequence (P10721 whole entry D816V): as the sequence (P10721 whole entry) above, with D816V counted along it
Cyclin-dependent kinase 4 (Homo sapiens), sequence (P11802 whole entry): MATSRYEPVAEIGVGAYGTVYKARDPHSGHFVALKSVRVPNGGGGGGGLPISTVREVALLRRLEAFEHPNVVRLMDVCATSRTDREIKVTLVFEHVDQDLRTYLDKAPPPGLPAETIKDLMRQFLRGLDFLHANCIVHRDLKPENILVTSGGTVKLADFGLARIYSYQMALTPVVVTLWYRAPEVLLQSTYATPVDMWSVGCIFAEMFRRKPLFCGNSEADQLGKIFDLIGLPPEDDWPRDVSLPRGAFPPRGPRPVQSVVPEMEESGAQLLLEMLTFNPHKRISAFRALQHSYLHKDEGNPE

CN([C@@H]1CCc2c(CC(=O)O)c3cc(S(C)(=O)=O)ccc3n2C1)S(=O)(=O)c1ccc(F)cc1
inactive: residual activity [1] 100% | residual activity [2] 100% | residual activity [3] 85% | residual activity [4] 100% | residual activity [5] 82% | residual activity [6] 100% | residual activity [7] 100% | residual activity [8] 85% | residual activity [9] 100% | residual activity [10] 86% | residual activity [11] 100% | residual activity [12] 100% | residual activity [13] 100% | residual activity [14] 100% | residual activity [15] 96% | residual activity [16] 89% | residual activity [17] 91% | residual activity [18] 100% | residual activity [19] 94% | residual activity [20] 100% | residual activity [21] 100% | residual activity [22] 95% | residual activity [23] 100% | residual activity [24] 100% | residual activity [25] 100% | residual activity [26] 97% | residual activity [27] 71% | residual activity [28] 100% | residual activity [29] 100% | residual activity [30] 100% | residual activity [31] 100% | residual activity [32] 100% | residual activity [33] 89% | residual activity [34] 100% | inhibition [35] -6.04% | inhibition [36] -9.3% | residual activity [37] 100% | residual activity [38] 100% | residual activity [39] 100% | residual activity [40] 100% | residual activity [41] 86% | inhibition [42] -2.99% | residual activity [43] 86% | residual activity [44] 100% | residual activity [45] 100%

CN([C@@H]1CCc2c(CC(=O)O)c3ccccc3n2C1)S(=O)(=O)c1ccc(F)cc1 [MK-7246]
inactive: residual activity [1] 100% | residual activity [2] 100% | residual activity [3] 100% | residual activity [4] 100% | residual activity [5] 83% | residual activity [6] 100% | residual activity [7] 100% | residual activity [8] 100% | residual activity [9] 100% | residual activity [10] 100% | residual activity [11] 100% | residual activity [12] 100% | residual activity [13] 100% | residual activity [14] 100% | residual activity [15] 100% | residual activity [16] 80% | residual activity [17] 99% | residual activity [18] 100% | residual activity [19] 100% | residual activity [20] 99% | residual activity [21] 100% | residual activity [22] 100% | residual activity [23] 100% | residual activity [24] 100% | residual activity [25] 100% | residual activity [26] 100% | residual activity [27] 100% | residual activity [28] 100% | residual activity [29] 100% | residual activity [30] 100% | residual activity [31] 100% | residual activity [32] 100% | residual activity [33] 100% | residual activity [34] 100% | inhibition [35] 1.94% | inhibition [36] -9.73% | residual activity [37] 100% | residual activity [38] 100% | residual activity [39] 100% | residual activity [40] 100% | residual activity [41] 100% | inhibition [42] -3.85% | residual activity [43] 100% | residual activity [44] 91% | residual activity [45] 100%
